These results are taken from US9044487B2, “Hematopoietic neoplasm chemotherapy” (Eli Lilly and Company, priority 2009, dated 2015).

Assay [1] relates to MV4;11 leukemia xenografts. The assay can be described thus: Antitumor efficacy in MV4;11 leukemia xenografts. It is filed as in vivo, female CD-1 nu/nu strain mice. Particulars: vehicle control 233 ± 23.2. The protocol: Cultured cells (ATCC) are implanted subcutaneously in the rear flank of female CD-1 nu/nu strain mice which have been acclimated for one week in the animal facility after receipt from the vendor. […] The tumors are measured 2 times per week by electronic calipers to plot growth curves. Animals are also monitored for fluctuations in body weight and survival.

The test system of assay [2] is HEL 92.1.7. Description: Caspase 3 activity (Apo-ONE Homogeneous Caspase-3/7 Assay). The assay is classed as cell-based, human. Particulars: relative to untreated controls. The source says: (§1) Apoptosis or programmed cell death is characterized by a set of biochemical reactions, one of which is the induction of caspases. Activated caspases are proteases that participate in a cascade of cleavage events that disable key enzymes responsible for cell homeostasis and repair. Caspases 3 and 7 play key effector roles in apoptosis and can be detected and measured by a fluorescent biochemical assay. The increase of Caspase-3/7 activity in cells is directly correlated to apoptotic activity. (D. W. Nicholson, et al., Nature, 376, 37-43 (1995)) The Promega Apo-ONE Homogeneous Caspase-3/7 Assay Kit is used (Catalog #G7791). The assay buffer consists of 30 mM HEPES (N-(2-hydroxyethyl)piperazine-N′-(2-ethanesulfonic acid) pH 7.4, 150 mM NaCl, 50 mM KCl, 10 mM MgCl2, 0.4 mM EGTA (ethylene glycol tetraacetic acid), 0.5% Nonidet P40 (octylphenolpoly(ethyleneglycol ether)), 0.1% CHAPS (3-[(3-Cholamidopropyl)dimethylammonio]-1-propanesulfonate hydrate and 10% sucrose, which lyses/permeabilizes cultured cells and a caspase 3/7 substrate, Z-DEVD (Z-Asp(OMe)-Glu(OMe)-Val-Asp(OMe)), coupled to a profluorescent rhodamine 110. When the buffer-substrate mixture is added to a test sample, the cleavage and subsequent removal of the DEVD peptides by caspase 3/7 activity results in intense fluorescence of the rhodamine 110 leaving group, which is detected by excitation at 490 nm. The amount of fluorescent product is proportional to the amount of caspase 3/7 cleavage activity in the sample.
(§2) To measure the apoptotic effect of test compounds, tumor cells are plated at 1×10^4 cells per well in 96 well plates and incubated overnight at 37° C., with 5% CO2. Tumor cells are treated with test compound at desired concentrations in triplicate, including untreated/negative control wells. The assay plates are re-incubated for 48 hrs. At the end of the incubation period, a mixture of the assay buffer and substrate is added to each sample well. The fluorescence in each well is measured at an excitation wavelength of 480+/−20 nm and an emission wavelength of 530+/−25 nm. The % increase of caspase activity in treated cells is calculated relative to untreated controls.
(§3) MV4;11 is a human acute myeloid leukemia line characterized by the presence of a fusion transcript comprised of the MLL and AF4 genes and by the presence of an internal tandem duplication in the juxtamembrane region of the FLT-3 gene. RS4;11 is a human acute lymphoid leukemia cell line characterized by the presence of a fusion transcript comprised of the MLL and AF4 genes. REH is a human acute lymphoid leukemia (non-T; non-B) cell line characterized by the presence of a fusion transcript comprised of the TEL and AML1 genes. Kasumi 1 is a human acute myeloid leukemia line characterized by the presence of a fusion transcript comprised of the AML1 and ETO genes. K562 is a human chronic myelogenous leukemia cell line characterized by the presence of a fusion transcript comprised of the Bcr and Abl genes. HEL 92.1.7 is a human erythroleukemia cell line characterized by the presence of a V617F mutation in the JAK2 gene. Jurkatt is a human acute T-cell leukemia cell line. Each of the cell lines are obtained from the American Type Culture Collection (ATCC). In the following tables the term “Compound 1” or “Cmpd 1” means 7-(2,5-dihydro-4-imidazo[1,2-a]pyridine-3-yl-2,5-dioxo-1H-pyrrol-3-yl)-9-fluoro-1,2,3,4-tetrahydro-2-(1-piperidinyl-carbonyl)-pyrrolo[3,2,1-jk][1,4]benzodiazepine. The GSK-3 inhibitor [(3-(2,4-dichlorophenyl)-4-(1-methyl-1H-indol-3-yl)-1H-pyrrole-2,5-dione (SB216763), Sigma-Aldrich is used as a positive comparator control in some experiments. The compound GSK-3 Inhibitor IX, (2′Z,3′E)-6-bromoindirubin-3′-oxime (“GSK3-IX”) Calbiochem, is used as a positive control in some experiments. Both SB216763 and GSK3-IX are mentioned in the Wang et al., Nature, 455, 1205-1210 (2008) paper as evidencing positive results. […]

The test system of assay [3] is Jurkat. The description is as above. It is filed as cell-based, human. Particulars: relative to untreated controls.
Description: as §1, §2, §3

The subject of assay [4] is K562. The assay is described as above. The assay is classed as cell-based, human. The conditions noted are these: relative to untreated controls.
Description: as §1, §2, §3

A further assay deals with Kasumi 1. The assay is described as above. It is filed as cell-based, human. Particulars: relative to untreated controls.
Description: as §1, §2, §3

Assay [5] concerns MV4;11. The assay is described as above. The assay is classed as cell-based, human. The conditions noted are these: relative to untreated controls.
Description: as §1, §2, §3

The subject of assay [6] is REH. Described as above. It is filed as cell-based, human. Particulars: relative to untreated controls.
Description: as §1, §2, §3

Assay [7] relates to RS4;11. The description is as above. It is filed as cell-based, human. Particulars: relative to untreated controls.
Description: as §1, §2, §3

The test system of assay [8] is HEL 92.1.7. The assay can be described thus: Reduction in cell viability (CellTiter-Glo Luminescent Cell Viability Assay). The assay is classed as cell-based, human. The conditions noted are these: 48 hrs, read-out: Reduction in cell viability after treatment - EC50 (mean of triplicates). The protocol:
(§4) Cell viability is determined by the CellTiter-Glo® Luminescent Cell Viability Assay (Promega, Catalog #G7570) which is a method of estimating viable cell number based on quantitation of ATP in metabolically active cells. After cells are lysed, the mono-oxygenation of the substrate luciferin is catalyzed by the enzyme luciferase in the presence of Mg2+, ATP and molecular oxygen, resulting in the generation of a luminescent signal that is proportional to the number of viable cells in the assay wells.
(§5) To measure the viability of cells after treatment with compounds, tumor cells are plated at 2×10^4 per well in 96 well plates and incubated overnight at 37° C., with 5% CO2. Tumor cells are treated with test compound at desired concentrations in triplicate, including untreated/negative control cells. The assay plates are re-incubated for 48 hrs. At the end of the incubation period, a mixture of lysis assay buffer and substrate is added to each sample well. The luminescence in each well is measured using a microtiter plate luminometer.
(§6) MV4;11 is a human acute myeloid leukemia line characterized by the presence of a fusion transcript comprised of the MLL and AF4 genes and by the presence of an internal tandem duplication in the juxtamembrane region of the FLT-3 gene. RS4;11 is a human acute lymphoid leukemia cell line characterized by the presence of a fusion transcript comprised of the MLL and AF4 genes. REH is a human acute lymphoid leukemia (non-T; non-B) cell line characterized by the presence of a fusion transcript comprised of the TEL and AML1 genes. Kasumi 1 is a human acute myeloid leukemia line characterized by the presence of a fusion transcript comprised of the AML1 and ETO genes. K562 is a human chronic myelogenous leukemia cell line characterized by the presence of a fusion transcript comprised of the Bcr and Abl genes. […] Jurkatt is a human acute T-cell leukemia cell line. Each of the cell lines are obtained from the American Type Culture Collection (ATCC).
A general note: In ATP-based viability assays light output follows the ATP content of the culture.

Assay [9] has as its system Jurkat. Described as above. Particulars: 48 hrs, read-out: Reduction in cell viability after treatment - EC50 (mean of triplicates). It is filed as cell-based, human. On the procedure: as §4, §5, §6
For assay [10], the system named is K562. The description is as above. The conditions noted are these: 48 hrs, read-out: Reduction in cell viability after treatment - EC50 (mean of triplicates). The assay is classed as cell-based, human. On the procedure:
as §4, §5, §6

The subject of another assay is Kasumi. Described as above. It is filed as cell-based, human. Particulars: 48 hrs, read-out: Reduction in cell viability after treatment - EC50 (mean of triplicates). On the procedure:
as §4, §5, §6

Assay [11] has as its system MV4;11. The assay is described as above. The conditions noted are these: 48 hrs, read-out: Reduction in cell viability after treatment - EC50 (mean of triplicates). The assay is classed as cell-based, human. The protocol:
as §4, §5, §6

For assay [12], the system named is REH. Described as above. It is filed as cell-based, human. Particulars: 48 hrs, read-out: Reduction in cell viability after treatment - EC50 (mean of triplicates). The protocol:
as §4, §5, §6

For assay [13], the system named is RS4;11. Described as above. It is filed as cell-based, human. Particulars: 48 hrs, read-out: Reduction in cell viability after treatment - EC50 (mean of triplicates). On the procedure: as §4, §5, §6

Molecules are shown by their SMILES. Where two headings read alike, the source gives them in different places.

With `Nc1ccn([C@@H]2O[C@H](CO)[C@@H](O)[C@@H]2O)c(=O)n1` [Arabinosylcytosine], the “Tumor Volume at day 33 Mean ± Standard Error” value in [1] (30 mg/kg IP administered every day for 14 days) was determined as 129 ± 11.2 mm^3.

`O=C1NC(=O)C(c2cnc3ccccn23)=C1c1cn2c3c(cc(F)cc13)CN(C(=O)N1CCCCC1)CC2` [Compound 1, 7-(2,5-dihydro-4-imidazo[1,2-a]pyridine-3-yl-2,5-dioxo-1H-pyrrol-3-yl)-9-fluoro-1,2,3,4-tetrahydro-2-(1-piperidinyl-carbonyl)-pyrrolo[3,2,1-jk][1,4]benzodiazepine]: the “% Increase in Caspase 3 after treatment with Cmpd 1 (mean of triplicates)” value is 284% in the assay with HEL 92.1.7 [2] (0.120 μM Compound 1, 48 hrs); 140% in the assay with Jurkat [3] (0.370 μM Compound 1, 48 hrs); 1057% in the assay with K562 [4] (0.0007 μM Compound 1, 48 hrs); 133% with Kasumi 1 (0.370 μM Compound 1, 48 hrs); 188% in the assay on MV4;11 [5] (0.010 μM Compound 1, 48 hrs); 132% in the assay on REH [6] (0.0007 μM Compound 1, 48 hrs). Also, the “% Increase in Caspase 3 after treatment with Cmpd 1 (mean of triplicates)” value with RS4;11 [7] (0.009 μM Compound 1, 48 hrs) is reported as 111%. In addition, the EC50 with HEL 92.1.7 [8] (Homo sapiens) came to 34 nM; with Jurkat [9] (Homo sapiens), 46 nM; with K562 [10] (Homo sapiens) it was 46 nM; in the assay on Kasumi (Homo sapiens), 16 nM; in the assay with MV4;11 [11] (Homo sapiens), 82 nM; in the assay on REH [12] (Homo sapiens), 6 nM. Further, the EC50 in the assay on RS4;11 [13] (Homo sapiens) stood at 5 nM. For the same compound, the “Tumor Volume at day 33 Mean ± Standard Error” value worked out at 189 ± 22.3 mm^3 in assay [1] (0.1 mg/kg IV administered twice a week, 6 cycles); 154 ± 15 mm^3 in [1] (1 mg/kg IV administered twice a week, 6 cycles); 167 ± 11.7 mm^3 in assay [1] (5 mg/kg IV administered once a week, three cycles).

On to `O=C1Nc2cc(Br)ccc2/C1=C1/Nc2ccccc2/C1=N\O` [GSK3-IX, (2′Z,3′E)-6-bromoindirubin-3′-oxime], for which the EC50 in the assay with HEL 92.1.7 [8] was greater than 3300 nM; in the assay with Jurkat [9], greater than 3300 nM; in the assay with K562 [10], greater than 3300 nM; in the assay with Kasumi, 1200 nM; with MV4;11 [11], 200 nM; with REH [12], 1100 nM. In addition, in the assay with RS4;11 [13], the EC50 was determined as 300 nM.

`Cn1cc(C2=C(c3ccc(Cl)cc3Cl)C(=O)NC2=O)c2ccccc21` [SB216763, 3-(2,4-dichlorophenyl)-4-(1-methyl-1H-indol-3-yl)-1H-pyrrole-2,5-dione]: the “% Increase in Caspase 3 after treatment with SB216763 (mean of triplicates)” value in the assay on HEL 92.1.7 [2] (10 μM SB216763, 48 hrs) is on record as 250%; in the assay on Jurkat [3] (10 μM SB216763, 48 hrs) it was 101%; with K562 [4] (20 μM SB216763, 48 hrs), 223%; in the assay on Kasumi 1 (10 μM SB216763, 48 hrs), 27%; in the assay with MV4;11 [5] (30 μM SB216763, 48 hrs), 83%; in the assay with REH [6] (20 μM SB216763, 48 hrs), 113%. Further, the “% Increase in Caspase 3 after treatment with SB216763 (mean of triplicates)” value in the assay on RS4;11 [7] (20 μM SB216763, 48 hrs) came out at 117%. The EC50 in the assay on HEL 92.1.7 [8] (Homo sapiens) was 11300 nM; with Jurkat [9] (Homo sapiens), greater than 10000 nM; in the assay with K562 [10] (Homo sapiens), 20000 nM; in the assay on Kasumi (Homo sapiens), 10000 nM; in the assay with MV4;11 [11] (Homo sapiens) it was 12600 nM; in the assay on REH [12] (Homo sapiens), 4200 nM. For the same compound, the EC50 with RS4;11 [13] (Homo sapiens) came out at 4400 nM.

For orientation: EC50 means the concentration that produces a half-maximal response.
